Molecular target: T1, rat KCa2.2a (UniProt P0DP23+P70604)
T1 construct: expressed in transfected cells; host or cells: HEK293
Assay: Inside-out patch-clamp potentiation of KCa2.2a channels expressed in HEK293 cells
Assay type: cell-based
Settings: for EC50: inside-out patch, HEK293, 0.15 μM Ca2+, current at −90 mV, read-out: EC50 (mean ± SEM, μM) on potentiating KCa2.2a channels; for fold higher potency on KCa2.2a channels compared to CyPPA: ratio of EC50 values vs CyPPA; for KCa2.2a/KCa2.3 subtype selectivity: vs KCa2.1 and KCa3.1
Description: The impact of adding one substituent group at C4 of the cyclohexane moiety of CyPPA with either electron donating (OH (2a), NH2 (2b), CH2OH (2c), and OCH3 (2d)) or electron-withdrawing groups (F (2e) and NO2 (2f)) was explored. The potency of the newly synthesized compounds compared to the template CyPPA was measured via inside-out patch clamp electrophysiology recordings with KCa2.2a channels heterologously expressed in HEK293 cells (FIG. 1A). […] The responses induced by 10 μM Ca^2+ are considered the maximal currents of the KCa2.2a channels. To evaluate the efficacy (Emax) of compounds on KCa2.2a channels, the current amplitudes at −90 mV in response to the maximal concentration of compounds were normalized to that obtained at 10 μM Ca^2+ (I/Imax (%), FIG. 1C).
The effect of newly synthesized compounds on the KCa2.x/KCa3.1 channels was investigated as previously described (Nam, Y. W.; et al, Acta Physiol (Oxf) 2020, e13552; Nam, Y. W.; et al. Scientific reports 2018, 8 (1), 10749). Briefly, the rat KCa2.2a, human KCa2.1, human KCa2.3 or human KCa3.1 channels cDNA constructs were either generated in-house or through molecular cloning services (Genscript). The channel cDNAs, along with CaM and GFP, at a ratio of 7:4:2 (ORF ratios), were transfected into HEK293 cells by the calcium-phosphate method. KCa currents were recorded 1-2 days after transfection, with an Axon200B amplifier (Molecular Devices) at room temperature. The resistance of the patch electrodes ranged from 3-5 MΩ. The pipette solution contained (in mM): 140 KCl, 10 Hepes (pH 7.4), 1 MgSO4. The bath solution containing (in mM): 140 KCl, 10 Hepes (pH 7.2), 1 EGTA, 0.1 Dibromo-BAPTA, and 1 HEDTA was mixed with Ca^2+ to obtain the desired free Ca^2+ concentrations, calculated using the software by Chris Patton of Stanford University (https://somapp.ucdmc.ucdavis.edu/pharmacology/bers/maxchelator/webmaxc/webmaxcS.htm). The Ca^2+ concentrations were verified using a Ca^2+ calibration buffer kit (Thermo Fisher Scientific). Briefly, a standard curve was generated using the Ca^2+ buffers from the kit and a fluorescence Ca^2+ indicator. Then, the Ca^2+ concentrations of the bath solution were determined through interpolation on the standard curve.
High resistance seals (>1 GΩ) were formed before inside-out patches were obtained. The seal resistance of inside-out patches was >1 GΩ, when the intracellular face was initially exposed to a zero-Ca^2+ bath solution. Currents were recorded by repetitive 1-s-voltage ramps from −100 mV to +100 mV from a holding potential of 0 mV. The currents were filtered at 2 kHz and digitized at a sampling frequency of 10 kHz. At the end of experiment, the integrity of the patch was examined by switching the bath solution back to the zero-Ca^2+ buffer. Data from patches, which maintained the seal resistance (>1 GΩ) after solution changes, were used for further analysis.
To measure the effect of CyPPA (Alomone Labs) and newly synthesized compounds, the intracellular face was exposed to bath solutions with 0.15 μM Ca^2+. One minute after switching of bath solutions, ten sweeps with a 1-s interval were recorded at a series of concentrations of compound in the presence of 0.15 μM Ca^2+. The maximal KCa2.x/KCa3.1 current in response to 10 μM Ca^2+ was then recorded.
Patch-clamp recordings were analyzed using Clampfit 10.5 (Molecular Devices LLC) and concentration-response curves were analyzed in GraphPad Prism 9.0.2 (GraphPad Software Inc.). To construct the concentration-dependent potentiation of channel activities by compound, the current amplitudes at −90 mV in response to various concentrations of the compound were normalized to that obtained at a maximal concentration of compound. The normalized currents were plotted as a function of the concentrations of the compound. EC50 values and Hill coefficients were determined by fitting the data points to a standard concentration-response curve (Y=100/(1+(X/EC50)^−Hill)). […]

| Compound | EC50 [µM] | fold higher potency on KCa2.2a channels compared to CyPPA [fold] | KCa2.2a/KCa2.3 subtype selectivity |
| --- | --- | --- | --- |
| Cc1cc(Nc2cc(Cl)ccc2F)nc(-n2nc(C)cc2C)n1 [Compound 2q, N-(5-Chloro-2-fluorophenyl)-2-(3,5-dimethyl-1H-pyrazol-1-yl)-6-methylpyrimidin-4-amine] | 0.64 ± 0.051 | ~10 | retained the KCa2.2a/KCa2.3 subtype selectivity |
| Cc1cc(Nc2ccc(F)c(Cl)c2)nc(-n2nc(C)cc2C)n1 [Compound 2o, N-(3-Chloro-4-fluorophenyl)-2-(3,5-dimethyl-1H-pyrazol-1-yl)-6-methyl-pyrimidin-4-amine] | 0.99 ± 0.079 | ~7 | retained the KCa2.2a/KCa2.3 subtype selectivity |
